Measurements: US9254266B2, “Inhibiting surface enhanced crystallization of amorphous pharmaceuticals with ultrathin coatings” (Wisconsin Alumni Research Foundation, priority 2007, dated 2016)
≈ marks a conversion by molar mass, not a printed value.

Legend:
Type in all cases: physicochemical
[1] = Surface crystallization and crystal growth of amorphous IMC films (light microscopy)
Experimental: Deposition of gold coatings. A Denton Vacuum Desk II (Denton Vacuum, Moorestown, N.J.) was used to deposit a gold coating on amorphous IMC. […] Under these conditions, the deposition rate was ca. 10 nm/30 s, providing a gold coating of about 10 nm in thickness. […] The coated film was golden and reflective. Deposition of LbL polyelectrolyte coatings on amorphous films. […] (Tg−20° C.), and gently removing one cover glass. To coat several films at once, they were loaded into a Teflon rack and immersed into the PDDA solution for 15 minutes. The samples were washed twice in Milli-Q water to remove the excess PDDA and immersed in the PSS solution. This procedure was repeated until the desired number of polymer layers was reached. The coated samples were left on a Whatman filter paper to remove the excess liquid on the slide and dried in a vacuum (0.4 mTorr) at 22° C. for 3 hrs. X-ray powder diffraction (XRPD). XRPD was performed with a Bruker D8 Advance X-ray diffractometer, which was equipped with a CuKα source (λ=1.54056 Å) operating at a tube load of 40 kV and 40 mA. The divergence slit size was 1 mm, the receiving slit, 1 mm, and the detector slit, 0.1 mm. Data was collected by a high-resolution Sol-X detector. Each sample was scanned between 2 and 40° (2θ) with a step size of 0.02° and a maximum scan rate of 3 s/step. The NIST standard SRM 1976 was used to check the instrument's calibration and performance. Samples of small quantities were analyzed on a Si(510) zero-background holder. Polarized light microscopy (PLM) was performed with a Nikon Optiphot Pol 2 microscope equipped with an Olympus video camera. The video image was calibrated against a 1-mm stage micrometer (100 divisions). Differential scanning calorimetry (DSC) was conducted in crimped Al pans using a TA Instruments Q1000 unit under 50 mL/min N2 purge. […] (Tg−2° C.). […] The crystals were birefringent. […] All samples were tested at 40° C. in a desiccator. […] Moreover, coating a partially crystallized sample with gold inhibited further crystallization. […] The set of experiments was again performed with amorphous IMC films prepared on microscope cover glasses. […] By contrast, only a small percentage of a coated surface was covered by crystals (white spots in the pictures) under the same conditions (FIG. 4b). Moreover, the crystals that did form on the coated surface grew much more slowly than those on the uncoated surface.

[2] = Zeta potential of IMC particles; settings: particles suspended in 0.01 M NaCl
Experimental: Zeta potentials were measured with a ZetaSizer 3000HSA (Malvern Instruments, USA). Sample particles (ca. 5 mg) were dispersed in 0.01 M NaCl. […] Each reported result was the average of three measurements.
Before coating amorphous IMC by this method, the sign of its surface charge in a coating solution was determined. […] (The pH of the coating solutions was 6.1 (PDDA) and 6.4 (PSS)). […] Coating with one layer of PDDA reversed the surface charge to positive (ζ-potential=+37 mV); adding the next layer (PSS) reversed the surface charge to negative again (ζ-potential=−32 mV); and so on.

[3] = Water contact angle on amorphous IMC film; settings: 22° C., 70% R.H.
Experimental: Contact Angle Measurements. The measurements were performed at 22° C. and 70% R.H. using a method similar to that of Zografi and Tam. […] The water droplet thus formed was about 3 mm in diameter. A side view of the droplet was recorded with a digital camera and the contact angle was measured from the image (Image J1.34 S). Each amorphous film was measured three times at different sites. Three samples were measured for each coating condition.
The water contact angle characterizes the wetting ability of the surface. The measurement was performed with amorphous IMC films on microscope cover glasses. […] The contact angle increased and decreased accordingly with additional layers of PDDA and PSS.

[4] = Flowability measurements and tablet properties of IMC powder
Experimental: Flowability measurements. […] To determine tapped density and compressibility, approximately 1.5 g of powder was poured into a 10-ml cylinder. The initial volume (V0) yielded the initial bulk density D0 (“fluff or poured bulk density”). The powder was then tapped for 5 minutes to obtain the final bulk volume (Vf) and the final bulk density Df (“equilibrium, tapped or consolidated bulk density”). The percent (%) compressibility (Carr's Index) was calculated from (Df−D0)/Df×100, which is another measure of powder flowability (% compressibility higher than 40% is thought to indicate a non-flowing, cohesive powder; % compressibility lower than 28% is thought to indicate a fluid to free-flowing powder).
Uncoated amorphous IMC powder was cohesive and flowed with difficulty, while the coated powder flowed more easily. For the uncoated powder, the angle of repose was 36°, signifying acceptable flowability.

[5] = Intrinsic dissolution rate (IDR), USP Dissolution Apparatus II; settings: 0.1 M phosphate buffer pH 7.2, 37° C.; for IDR: 50 RPM, first 15 minutes, no storage
Experimental: Measurement of intrinsic dissolution rate (IDR). The IDR was measured using a USP Dissolution Apparatus II (rotating paddle, model RC-8D, Vanguard, Spring, Tex.) following standard procedures. […] Tablets without visible chipping or surface imperfection were used for dissolution measurement. Each tablet used for IDR measurement was coated on one side and around the rim with water-impervious shellac (clear nail polish) that contained as the primary ingredient tosylamide epoxy resin. Conditions of the IDR measurement were as follows: 500 ml of 0.1 M phosphate buffer (pH 7.2), 50 RPM of paddle speed, 1 inch between the tablet and the paddle, and 37° C. Samples were taken every 2.5 minutes up to 15 minutes, every 5 minutes up to 30 minutes, and every 10 minutes up to 60 minutes. Each sample (2 ml) of the solution was drawn with a syringe and filtered through a 0.22-μm filter needle. The sample's concentration was determined by UV-visible spectrometry at 318 nm. The analyzed solution was returned to the dissolution vessel to maintain the constant volume. For each amorphous IMC material studied (with and without coating, with and without aging), the IDR measurement was performed six times with three independently prepared materials as described above.
As shown above in FIG. 4, because one layer of PDDA was nearly as effective as several layers of PDDA and PSS in inhibiting surface crystallization, this example used materials coated with a single layer of PDDA. Moreover, thinner coatings are expected to maximize the rate of dissolution. […] For comparison, the IDR of γ IMC was also measured. Each data point in FIG. 8 is the average of six measurements. For each sample of amorphous IMC (uncoated or coated), the six measurements were performed with three independently prepared materials (including melting, grinding, coating, and tableting). […] Similarly, it is assumed that the IDR of amorphous IMC was measured under a sink condition.

[6] = Crystallization of amorphous IMC powder on storage (XRPD, DSC)
Experimental: The particles were sieved through to a 75 μm screen, transferred to a 200 ml beaker containing 100 ml of the PDDA solution, and kept in contact with the solution for 15 minutes. The suspension was filtered through #2 Whatman filter paper to remove the supernatant and washed with Milli-Q water. Vacuum was then applied to dry the particles for at least 3 hrs.
X-ray powder diffraction (XRPD). XRPD was performed with a Bruker D8 Advance X-ray diffractometer, which was equipped with a CuKα source (λ=1.54056 Å) operating at a tube load of 40 kV and 40 mA. The divergence slit size was 1 mm, the receiving slit, 1 mm, and the detector slit, 0.1 mm. Data was collected by a high-resolution Sol-X detector. Each sample was scanned between 2 and 40° (2θ) with a step size of 0.02° and a maximum scan rate of 3 s/step. The NIST standard SRM 1976 was used to check the instrument's calibration and performance. Samples of small quantities were analyzed on a Si(510) zero-background holder. Polarized light microscopy (PLM) was performed with a Nikon Optiphot Pol 2 microscope equipped with an Olympus video camera. The video image was calibrated against a 1-mm stage micrometer (100 divisions). Differential scanning calorimetry (DSC) was conducted in crimped Al pans using a TA Instruments Q1000 unit under 50 mL/min N2 purge.
The larger the exotherm, the greater the amorphous fraction before DSC analysis. […]

[7] = Solubility of γ IMC in buffer; settings: aqueous buffer, thermodynamic from solid; 0.1 M PBS buffer pH 7.2, 37° C.

| surface crystallization in vacuum compared with desiccated ambient air ([1]; 0.4 mTorr and 22° C.) | surface covered by crystals after 20 days ([1]; 15 μm films on cover glasses, 20 days at 40° C.) | crystallization of film between two cover glasses ([1]; below Tg (42° C.), no free surface) | appearance of crystals at free surface ([1]; one cover glass removed, 40° C.) | ζ-potential [2] | water contact angle [3] | % Compressibility ([4]; Carr's Index, (Df−D0)/Df×100) | angle of repose ([4]; powder) | angle of repose ([4]; powder sieved through 75 μm screen) | Tapped Density ([4]; powder tapped for 5 minutes) | Tablet Bulk Density ([4]; tablets made with a Carver press) | Tablet Porosity ([4]; true density of 1.31 g/cm^3 used) | time until tablet began crystallizing to α IMC in the dissolution medium [5] | IDR ([5]; listed as Uncoated) | IDR after 2 d ([5]; after 2 days of storage at 40° C.) | solid state of powder after 2 days (PXRD) ([6]; 2 days at 40° C., powder sieved through 75 μm) | DSC crystallization exotherm after 2 days ([6]; 2 days of storage at 40° C.) | IDR [5] | solubility [7] | Compound | coverage of free surface with crystals on storage ([1]; uncoated film, 40° C.) |
| --- | --- | --- | --- | --- | --- | --- | --- | --- | --- | --- | --- | --- | --- | --- | --- | --- | --- | --- | --- | --- |
| same rate of crystal growth | completely covered with crystals | does not crystallize for months | crystals appear in days | −41 mV | 44 ° | 42 ± 1% | 36 ° | 36.1 ± 2.3 | 0.52 ± 0.03 g/mL | 1.07 ± 0.03 g/mL | 18 ± 2% | approximately 20 minutes | 0.56 mg/cm^2/min | 0.10 mg/cm^2/min | crystallized into γ IMC | disappears |  |  | COc1ccc2c(c1)c(CC(=O)O)c(C)n2C(=O)c1ccc(Cl)cc1 [amorphous IMC, 1-(p-chlorobenzoyl)-5-methoxy-2-methylindole-3-acetic acid] | After two or three weeks, the surface was fully covered with crystals |
|  |  |  |  | negatively charged |  |  |  |  |  |  |  |  |  |  |  |  | 0.07 mg/cm^2/min | 1500 µg/mL (≈ 4.19 mM) | COc1ccc2c(c1)c(CC(=O)O)c(C)n2C(=O)c1ccc(Cl)cc1 [γ IMC, 1-(p-chlorobenzoyl)-5-methoxy-2-methylindole-3-acetic acid] |  |
